# From ChEMBL document CHEMBL1909046, “DrugMatrix in vitro pharmacology data”
# Target: T1, Endothelin-1 receptor (Homo sapiens, UniProt P25101); note: in other assays of this panel Not Active means under 50% inhibition at 10 µM
# T1 sequence (P25101 whole entry): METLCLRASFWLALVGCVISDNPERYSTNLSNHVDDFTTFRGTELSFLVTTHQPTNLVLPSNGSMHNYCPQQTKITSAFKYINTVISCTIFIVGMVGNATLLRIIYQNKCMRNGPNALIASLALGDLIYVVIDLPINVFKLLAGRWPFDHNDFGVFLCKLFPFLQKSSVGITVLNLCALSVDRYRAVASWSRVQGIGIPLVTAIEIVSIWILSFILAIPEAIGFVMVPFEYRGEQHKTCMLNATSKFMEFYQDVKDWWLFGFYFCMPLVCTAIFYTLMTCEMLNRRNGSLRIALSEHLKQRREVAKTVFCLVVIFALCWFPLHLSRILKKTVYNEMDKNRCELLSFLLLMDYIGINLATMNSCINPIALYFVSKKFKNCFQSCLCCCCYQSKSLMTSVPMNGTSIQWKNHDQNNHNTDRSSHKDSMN
# Assay type: cell membranes, CHO-K1, Membrane
# Details: cho-k1
row,SMILES,IC50
1,COCCc1ccc(OCC(O)CNC(C)C)cc1 (configuration not stated) [METOPROLOL],Not Active
2,Cc1ccc(-c2cc(C(F)(F)F)nn2-c2ccc(S(N)(=O)=O)cc2)cc1 [CELECOXIB],Not Active
3,c1ccc(Nc2ccc(Nc3ccccc3)cc2)cc1,Not Active
4,Cc1onc(-c2ccccc2Cl)c1C(=O)N[C@@H]1C(=O)N2[C@@H]1SC(C)(C)[C@@H]2C(=O)O [CLOXACILLIN],Not Active
5,CC1=C2C(=CO[C@H](C)[C@H]2C)C(O)=C(C(=O)O)C1=O [CITRININ],Not Active
6,CC(C)C(=O)Nc1ccc([N+](=O)[O-])c(C(F)(F)F)c1 [FLUTAMIDE],Not Active

# Test system: not listed separately
# Test: DRUGMATRIX: Glutamate, Kainate radioligand binding (ligand: [3H] Kainic acid)
# Assay type: cell membranes, Rattus norvegicus, Wistar, Brain, Membrane
# Details: Not Active = under 50% inhibition at 10 µM
SMILES,IC50,Ki
COCCc1ccc(OCC(O)CNC(C)C)cc1 (configuration not stated) [METOPROLOL],Not Active,Not Active
Cc1ccc(-c2cc(C(F)(F)F)nn2-c2ccc(S(N)(=O)=O)cc2)cc1 [CELECOXIB],Not Active,Not Active
c1ccc(Nc2ccc(Nc3ccccc3)cc2)cc1,Not Active,Not Active
Cc1onc(-c2ccccc2Cl)c1C(=O)N[C@@H]1C(=O)N2[C@@H]1SC(C)(C)[C@@H]2C(=O)O [CLOXACILLIN],Not Active,Not Active
CC1=C2C(=CO[C@H](C)[C@H]2C)C(O)=C(C(=O)O)C1=O [CITRININ],Not Active,Not Active
CC(C)C(=O)Nc1ccc([N+](=O)[O-])c(C(F)(F)F)c1 [FLUTAMIDE],Not Active,Not Active

# Test system: not listed separately
# Test: DRUGMATRIX: Glutamate, NMDA, Agonism radioligand binding (ligand: [3H] CGP-39653)
# Assay type: cell membranes, Rattus norvegicus, Wistar, Cerebral cortex, Membrane
# Details: Not Active = under 50% inhibition at 10 µM
SMILES,IC50,Ki
COCCc1ccc(OCC(O)CNC(C)C)cc1 (configuration not stated) [METOPROLOL],Not Active,Not Active
Cc1ccc(-c2cc(C(F)(F)F)nn2-c2ccc(S(N)(=O)=O)cc2)cc1 [CELECOXIB],Not Active,Not Active
c1ccc(Nc2ccc(Nc3ccccc3)cc2)cc1,Not Active,Not Active
Cc1onc(-c2ccccc2Cl)c1C(=O)N[C@@H]1C(=O)N2[C@@H]1SC(C)(C)[C@@H]2C(=O)O [CLOXACILLIN],Not Active,Not Active
CC1=C2C(=CO[C@H](C)[C@H]2C)C(O)=C(C(=O)O)C1=O [CITRININ],Not Active,Not Active
CC(C)C(=O)Nc1ccc([N+](=O)[O-])c(C(F)(F)F)c1 [FLUTAMIDE],Not Active,Not Active

# Target: T2, 3-hydroxy-3-methylglutaryl-coenzyme A reductase (Homo sapiens, UniProt P04035);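 note: enzyme inhibition assay of HMG-CoA reductase using radiolabeled [14C]HMG-CoA as substrate; in other assays of this panel Not Active means under 50% inhibition at 10 µM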
# T2 sequence (P04035 whole entry): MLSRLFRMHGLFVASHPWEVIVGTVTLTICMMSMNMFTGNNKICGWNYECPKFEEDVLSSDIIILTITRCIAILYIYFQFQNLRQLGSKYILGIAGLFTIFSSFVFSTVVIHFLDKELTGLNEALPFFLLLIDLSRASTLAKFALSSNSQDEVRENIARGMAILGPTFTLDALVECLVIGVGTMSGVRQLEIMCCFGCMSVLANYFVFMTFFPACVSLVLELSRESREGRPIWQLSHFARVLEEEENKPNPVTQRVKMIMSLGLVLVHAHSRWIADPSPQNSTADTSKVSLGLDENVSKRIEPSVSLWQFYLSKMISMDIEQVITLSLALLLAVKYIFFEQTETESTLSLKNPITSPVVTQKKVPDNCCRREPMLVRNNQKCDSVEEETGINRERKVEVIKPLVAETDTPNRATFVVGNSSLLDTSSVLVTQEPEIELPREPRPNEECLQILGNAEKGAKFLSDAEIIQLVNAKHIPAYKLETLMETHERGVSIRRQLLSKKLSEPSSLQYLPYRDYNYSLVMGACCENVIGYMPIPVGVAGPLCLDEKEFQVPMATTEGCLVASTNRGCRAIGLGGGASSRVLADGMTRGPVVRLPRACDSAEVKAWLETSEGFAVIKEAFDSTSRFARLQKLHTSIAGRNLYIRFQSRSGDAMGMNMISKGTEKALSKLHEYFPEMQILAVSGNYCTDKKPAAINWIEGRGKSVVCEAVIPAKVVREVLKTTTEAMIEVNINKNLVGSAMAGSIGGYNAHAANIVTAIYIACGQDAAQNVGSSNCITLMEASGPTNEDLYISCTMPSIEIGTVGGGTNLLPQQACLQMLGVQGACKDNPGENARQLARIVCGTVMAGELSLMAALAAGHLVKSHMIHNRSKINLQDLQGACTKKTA
# Set-up: species or system Escherichia coli
# Details: not given
row,SMILES,IC50
1,COCCc1ccc(OCC(O)CNC(C)C)cc1 (configuration not stated) [METOPROLOL],Not Active
2,Cc1ccc(-c2cc(C(F)(F)F)nn2-c2ccc(S(N)(=O)=O)cc2)cc1 [CELECOXIB],Not Active
3,c1ccc(Nc2ccc(Nc3ccccc3)cc2)cc1,Not Active
4,Cc1onc(-c2ccccc2Cl)c1C(=O)N[C@@H]1C(=O)N2[C@@H]1SC(C)(C)[C@@H]2C(=O)O [CLOXACILLIN],Not Active
5,CC1=C2C(=CO[C@H](C)[C@H]2C)C(O)=C(C(=O)O)C1=O [CITRININ],Not Active
6,CC(C)C(=O)Nc1ccc([N+](=O)[O-])c(C(F)(F)F)c1 [FLUTAMIDE],Not Active

# Test system: not listed separately
# Test: DRUGMATRIX: Interleukin IL-1 radioligand binding (ligand: [125I] interleukin 1beta)
# Assay type: cell membranes, Membrane
# Details: nih3t3; Not Active = under 50% inhibition at 10 µM
SMILES,IC50,Ki
COCCc1ccc(OCC(O)CNC(C)C)cc1 (configuration not stated) [METOPROLOL],Not Active,Not Active
Cc1ccc(-c2cc(C(F)(F)F)nn2-c2ccc(S(N)(=O)=O)cc2)cc1 [CELECOXIB],Not Active,Not Active
c1ccc(Nc2ccc(Nc3ccccc3)cc2)cc1,Not Active,Not Active
Cc1onc(-c2ccccc2Cl)c1C(=O)N[C@@H]1C(=O)N2[C@@H]1SC(C)(C)[C@@H]2C(=O)O [CLOXACILLIN],Not Active,Not Active
CC1=C2C(=CO[C@H](C)[C@H]2C)C(O)=C(C(=O)O)C1=O [CITRININ],Not Active,Not Active
CC(C)C(=O)Nc1ccc([N+](=O)[O-])c(C(F)(F)F)c1 [FLUTAMIDE],Not Active,Not Active

# Target: T3, Cysteinyl leukotriene receptor 1 (Homo sapiens, UniProt Q9Y271); note: in other assays of this panel Not Active means under 50% inhibition at 10 µM
# T3 sequence (Q9Y271 whole entry): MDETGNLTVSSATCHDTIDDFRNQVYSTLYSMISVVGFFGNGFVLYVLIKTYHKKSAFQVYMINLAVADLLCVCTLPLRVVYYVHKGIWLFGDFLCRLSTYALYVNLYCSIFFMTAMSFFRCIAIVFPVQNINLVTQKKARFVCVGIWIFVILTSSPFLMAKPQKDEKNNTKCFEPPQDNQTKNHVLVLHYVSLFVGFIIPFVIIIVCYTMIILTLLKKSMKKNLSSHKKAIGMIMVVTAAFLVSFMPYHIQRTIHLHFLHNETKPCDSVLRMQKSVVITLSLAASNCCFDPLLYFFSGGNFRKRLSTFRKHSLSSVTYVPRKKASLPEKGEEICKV
# Assay type: cell membranes, CHO-K1, Membrane
# Details: cho-k1
row,SMILES,IC50
1,COCCc1ccc(OCC(O)CNC(C)C)cc1 (configuration not stated) [METOPROLOL],Not Active
2,Cc1ccc(-c2cc(C(F)(F)F)nn2-c2ccc(S(N)(=O)=O)cc2)cc1 [CELECOXIB],Not Active
3,c1ccc(Nc2ccc(Nc3ccccc3)cc2)cc1,Not Active
4,Cc1onc(-c2ccccc2Cl)c1C(=O)N[C@@H]1C(=O)N2[C@@H]1SC(C)(C)[C@@H]2C(=O)O [CLOXACILLIN],Not Active
5,CC1=C2C(=CO[C@H](C)[C@H]2C)C(O)=C(C(=O)O)C1=O [CITRININ],Not Active
6,CC(C)C(=O)Nc1ccc([N+](=O)[O-])c(C(F)(F)F)c1 [FLUTAMIDE],Not Active

# Target: cGMP-specific 3',5'-cyclic phosphodiesterase (Homo sapiens, UniProt O76074)
# Test: DRUGMATRIX: Phosphodiesterase PDE5 enzyme inhibition (substrate: [3H]cGMP + cGMP)
# Assay type: tissue-based
# Details: platelet; Not Active = under 50% inhibition at 10 µM
row,SMILES,IC50
1,COCCc1ccc(OCC(O)CNC(C)C)cc1 (configuration not stated) [METOPROLOL],Not Active
2,Cc1ccc(-c2cc(C(F)(F)F)nn2-c2ccc(S(N)(=O)=O)cc2)cc1 [CELECOXIB],Not Active
3,c1ccc(Nc2ccc(Nc3ccccc3)cc2)cc1,Not Active
4,Cc1onc(-c2ccccc2Cl)c1C(=O)N[C@@H]1C(=O)N2[C@@H]1SC(C)(C)[C@@H]2C(=O)O [CLOXACILLIN],Not Active
5,CC1=C2C(=CO[C@H](C)[C@H]2C)C(O)=C(C(=O)O)C1=O [CITRININ],Not Active
6,CC(C)C(=O)Nc1ccc([N+](=O)[O-])c(C(F)(F)F)c1 [FLUTAMIDE],Not Active

# Target: Acetylcholinesterase (Homo sapiens, UniProt P22303)
# Test: DRUGMATRIX: Acetylcholinesterase enzyme inhibition (substrate: acetylthiocholine)
# Assay type: cell-based, HEK293
# Details: hek293; Not Active = under 50% inhibition at 10 µM
# Acetylcholinesterase, sequence (P22303 whole entry): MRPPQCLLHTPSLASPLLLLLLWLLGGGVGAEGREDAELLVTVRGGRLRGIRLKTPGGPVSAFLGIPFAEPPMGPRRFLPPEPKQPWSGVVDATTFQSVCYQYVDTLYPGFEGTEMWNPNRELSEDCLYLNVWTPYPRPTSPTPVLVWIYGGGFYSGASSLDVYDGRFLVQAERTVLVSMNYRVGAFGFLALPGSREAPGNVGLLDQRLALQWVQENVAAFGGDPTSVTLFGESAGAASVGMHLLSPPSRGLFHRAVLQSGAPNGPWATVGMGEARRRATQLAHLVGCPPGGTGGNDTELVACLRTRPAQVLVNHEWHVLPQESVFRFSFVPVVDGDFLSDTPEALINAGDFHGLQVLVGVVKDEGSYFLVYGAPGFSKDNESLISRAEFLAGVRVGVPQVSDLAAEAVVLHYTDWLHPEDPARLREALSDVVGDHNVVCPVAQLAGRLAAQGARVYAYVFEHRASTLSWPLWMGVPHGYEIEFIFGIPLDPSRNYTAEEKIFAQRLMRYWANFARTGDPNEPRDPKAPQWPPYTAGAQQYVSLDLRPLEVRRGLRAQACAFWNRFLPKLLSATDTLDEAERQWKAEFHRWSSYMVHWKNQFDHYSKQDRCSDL
row,SMILES,IC50
1,COCCc1ccc(OCC(O)CNC(C)C)cc1 (configuration not stated) [METOPROLOL],Not Active
2,Cc1ccc(-c2cc(C(F)(F)F)nn2-c2ccc(S(N)(=O)=O)cc2)cc1 [CELECOXIB],Not Active
3,c1ccc(Nc2ccc(Nc3ccccc3)cc2)cc1,Not Active
4,Cc1onc(-c2ccccc2Cl)c1C(=O)N[C@@H]1C(=O)N2[C@@H]1SC(C)(C)[C@@H]2C(=O)O [CLOXACILLIN],Not Active
5,CC1=C2C(=CO[C@H](C)[C@H]2C)C(O)=C(C(=O)O)C1=O [CITRININ],Not Active
6,CC(C)C(=O)Nc1ccc([N+](=O)[O-])c(C(F)(F)F)c1 [FLUTAMIDE],Not Active

# Target: T4, Adenosine receptor A1 (Homo sapiens, UniProt P30542);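 note: radioligand binding assay at the adenosine A1 receptor, with DPCPX serving as the labelled ligand; in other assays of this panel Not Active means under 50% inhibition at 10 µM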
# T4 sequence (P30542 whole entry): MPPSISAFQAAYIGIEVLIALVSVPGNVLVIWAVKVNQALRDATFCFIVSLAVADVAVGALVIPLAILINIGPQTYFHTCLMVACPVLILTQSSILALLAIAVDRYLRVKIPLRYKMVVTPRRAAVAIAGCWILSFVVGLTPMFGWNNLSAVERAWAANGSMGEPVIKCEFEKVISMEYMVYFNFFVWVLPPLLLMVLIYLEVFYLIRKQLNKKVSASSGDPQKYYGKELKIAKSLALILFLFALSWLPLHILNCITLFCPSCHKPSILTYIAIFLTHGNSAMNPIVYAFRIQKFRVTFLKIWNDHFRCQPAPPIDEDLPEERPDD
# Assay type: cell membranes, CHO, Membrane
# Details: cho
row,SMILES,IC50
1,COCCc1ccc(OCC(O)CNC(C)C)cc1 (configuration not stated) [METOPROLOL],Not Active
2,Cc1ccc(-c2cc(C(F)(F)F)nn2-c2ccc(S(N)(=O)=O)cc2)cc1 [CELECOXIB],Not Active
3,c1ccc(Nc2ccc(Nc3ccccc3)cc2)cc1,Not Active
4,Cc1onc(-c2ccccc2Cl)c1C(=O)N[C@@H]1C(=O)N2[C@@H]1SC(C)(C)[C@@H]2C(=O)O [CLOXACILLIN],Not Active
5,CC1=C2C(=CO[C@H](C)[C@H]2C)C(O)=C(C(=O)O)C1=O [CITRININ],Not Active
6,CC(C)C(=O)Nc1ccc([N+](=O)[O-])c(C(F)(F)F)c1 [FLUTAMIDE],Not Active
